Results from patent US10875850B2, “Pesticidally active azetidine sulfones amide isoxazoline derivatives” (SYNGENTA PARTICIPATIONS AG, priority 2016, dated 2020).

Tests used:
Format in all cases: in vivo
Thrips tabaci [1] = experiment: Comparative Example C4: Thrips tabaci, feeding/contact activity, various application rates; conditions: 6 days after infestation
Protocol: (§1) Sunflower leaf discs were placed on agar in 24-well microtiter plates and sprayed with aqueous test solutions prepared from 10′000 ppm DMSO stock solutions. After drying the leaf discs were infested with a thrips population of mixed ages. The samples were assessed for mortality (%) 6 days after infestation at the various application rates.

Tetranychus urticae [2] = experiment: Comparative Example C3: Tetranychus urticae, feeding/contact activity, various application rates; conditions: 8 days after infestation
Protocol: (§2) Cotton leaf discs were placed onto agar in 24-well microtiter plates and sprayed with aqueous test solutions prepared from 10′000 ppm DMSO stock solutions. After drying the leaf discs were infested with five L1 larvae. The samples were assessed for mortality (%) 3 days after infestation at the various application rates. Example C3: Tetranychus urticae (Two-Spotted Spider Mite): Feeding/Contact Activity Bean leaf discs on agar in 24-well microtiter plates were sprayed with aqueous test solutions prepared from 10′000 ppm DMSO stock solutions. After drying the leaf discs were infested with a mite population of mixed ages. The samples were assessed for mortality on mixed population (%) (mobile stages) 8 days after infestation at the various application rates.

Spodoptera littoralis [3] = experiment: Comparative Example C2: Spodoptera littoralis, feeding/contact activity, various application rates; conditions: 3 days after infestation
Protocol: as §2

Plutella xylostella [4] = experiment: Comparative Example C1: Plutella xylostella, feeding/contact activity, various application rates; conditions: 5 days after infestation
Protocol: 24-well microtiter plates with artificial diet were treated with aqueous test solutions prepared from 10′000 ppm DMSO stock solutions by pipetting. After drying, the plates were infested with L2 larvae (10 to 15 per well). The samples were assessed for mortality (%) 5 days after infestation at the various application rates.

Spodoptera littoralis [5] = experiment: Example B5: Spodoptera littoralis (Egyptian cotton leaf worm), feeding/contact activity; conditions: 72 h
Protocol: Cotton leaf discs were placed onto agar in 24-well microtiter plates and sprayed with aqueous test solutions prepared from 10′000 ppm DMSO stock solutions. After drying the leaf discs were infested with five L1 larvae. The samples were assessed for mortality 3 days after infestation.

Thrips tabaci [6] = experiment: Example B7: Thrips tabaci (onion thrips), feeding/contact activity; conditions: 144 h
Protocol: as §1, with “mortality” for “mortality (%)”, “infestation.” for “infestation at the various application rates.”

Diabrotica balteata = experiment: Example B1: Diabrotica balteata (corn root worm), maize sprouts sprayed; conditions: 96 h, read-out: effect in at least one of the two categories (mortality or growth inhibition)
Protocol: Maize sprouts placed onto an agar layer in 24-well microtiter plates were treated with aqueous test solutions prepared from 10′000 ppm DMSO stock solutions by spraying. After drying, the plates were infested with L2 larvae (6 to 10 per well). The samples were assessed for mortality and growth inhibition in comparison to untreated samples 4 days after infestation. The following compounds gave an effect of at least 80% in at least one of the two categories (mortality or growth inhibition) at an application rate of 200 ppm: A01, A02, A03, A04, A05, A06, A07, A08, A09, A10, A11, A12, A13, A14, A15, A16, A17, A18, A19, A20, A21, A22, A23, A24, A25, A26, A27, A28, B01

Myzus persicae [7] = experiment: Example B3: Myzus persicae (green peach aphid), intrinsic activity; conditions: 120 h
Protocol: Test compounds prepared from 10′000 ppm DMSO stock solutions were applied by pipette into 24-well microtiter plates and mixed with sucrose solution. The plates were closed with a stretched Parafilm. A plastic stencil with 24 holes was placed onto the plate and infested pea seedlings were placed directly on the Parafilm. The infested plate was closed with a gel blotting paper and another plastic stencil and then turned upside down. The samples were assessed for mortality 5 days after infestation.

Tetranychus urticae [8] = experiment: Example B6: Tetranychus urticae (two-spotted spider mite), feeding/contact activity; conditions: 192 h, read-out: mortality on mixed population (mobile stages)
Protocol: Bean leaf discs on agar in 24-well microtiter plates were sprayed with aqueous test solutions prepared from 10′000 ppm DMSO stock solutions. After drying the leaf discs were infested with a mite population of mixed ages. The samples were assessed for mortality on mixed population (mobile stages) 8 days after infestation.

Euschistus heros = experiment: Example B2: Euschistus heros (neotropical brown stink bug), soybean leaves sprayed; conditions: 120 h, read-out: effect in at least one of the two categories (mortality or growth inhibition)
Protocol: Soybean leaves on agar in 24-well microtiter plates were sprayed with aqueous test solutions prepared from 10′000 ppm DMSO stock solutions. After drying the leaves were infested with N2 nymphs. The samples were assessed for mortality and growth inhibition in comparison to untreated samples 5 days after infestation. The following compounds gave an effect of at least 80% in at least one of the two categories (mortality or growth inhibition) at an application rate of 200 ppm: A01, A02, A03, A04, A05, A06, A07, A08, A09, A10, A11, A12, A13, A14, A15, A16, A17, A18, A19, A20, A21, A22, A23, A24, A25, A26, A27, A28, B01

Plutella xylostella [9] = experiment: Example B4: Plutella xylostella (diamond back moth), artificial diet; conditions: 120 h, read-out: effect in at least one of the two categories (mortality or growth inhibition)
Protocol: 24-well microtiter plates with artificial diet were treated with aqueous test solutions prepared from 10′000 ppm DMSO stock solutions by pipetting. After drying, the plates were infested with L2 larvae (10 to 15 per well). The samples were assessed for mortality and growth inhibition in comparison to untreated samples 5 days after infestation. The following compounds gave an effect of at least 80% in at least one of the two categories (mortality or growth inhibition) at an application rate of 200 ppm: A01, A02, A03, A04, A05, A06, A07, A08, A09, A10, A11, A12, A13, A14, A15, A16, A17, A18, A19, A20, A21, A22, A23, A24, A25, A26, A27, A28, B01

Myzus persicae [10] = experiment: Example B8: Myzus persicae (green peach aphid), feeding/contact activity; conditions: 144 h
Protocol: Sunflower leaf discs were placed onto agar in a 24-well microtiter plate and sprayed with aqueous test solutions prepared from 10′000 ppm DMSO stock solutions. After drying, the leaf discs were infested with an aphid population of mixed ages. The samples were assessed for mortality 6 days after infestation.

Cc1cc(C2=NOC(c3cc(Cl)cc(Cl)c3)(C(F)(F)F)C2)ccc1C(=O)NC1CN(S(C)(=O)=O)C1 (centres unmarked) [Compound A02]
Thrips tabaci mixed population average mortality (%) (Thrips tabaci [1]; application rate 0.195 ppm): 0% | Thrips tabaci mixed population average mortality (%) (Thrips tabaci [1]; application rate 0.781 ppm): 100% | Thrips tabaci mixed population average mortality (%) (Thrips tabaci [1]; application rate 3.12 ppm): 100% | Thrips tabaci mixed population average mortality (%) (Thrips tabaci [1]; application rate 12.5 ppm): 100% | Thrips tabaci mixed population average mortality (%) (Thrips tabaci [1]; application rate 50 ppm): 100% | Thrips tabaci mixed population average mortality (%) (Thrips tabaci [1]; application rate 200 ppm): 100% | Tetranychus urticae mixed population average mortality (%) (Tetranychus urticae [2]; application rate 0.195 ppm): 0% | Tetranychus urticae mixed population average mortality (%) (Tetranychus urticae [2]; application rate 0.781 ppm): 50% | Tetranychus urticae mixed population average mortality (%) (Tetranychus urticae [2]; application rate 3.12 ppm): 100% | Tetranychus urticae mixed population average mortality (%) (Tetranychus urticae [2]; application rate 12.5 ppm): 100% | Tetranychus urticae mixed population average mortality (%) (Tetranychus urticae [2]; application rate 50 ppm): 100% | Tetranychus urticae mixed population average mortality (%) (Tetranychus urticae [2]; application rate 200 ppm): 100% | Spodoptera littoralis larval average mortality (%) (Spodoptera littoralis [3]; application rate 0.195 ppm): 50% | Spodoptera littoralis larval average mortality (%) (Spodoptera littoralis [3]; application rate 0.781 ppm): 100% | Spodoptera littoralis larval average mortality (%) (Spodoptera littoralis [3]; application rate 3.12 ppm): 100% | Spodoptera littoralis larval average mortality (%) (Spodoptera littoralis [3]; application rate 12.5 ppm): 100% | Spodoptera littoralis larval average mortality (%) (Spodoptera littoralis [3]; application rate 50 ppm): 100% | Spodoptera littoralis larval average mortality (%) (Spodoptera littoralis [3]; application rate 200 ppm): 100% | Plutella xylostella larval average mortality (%) (Plutella xylostella [4]; application rate 0.195 ppm): 80% | Plutella xylostella larval average mortality (%) (Plutella xylostella [4]; application rate 0.781 ppm): 100% | Plutella xylostella larval average mortality (%) (Plutella xylostella [4]; application rate 3.12 ppm): 100% | Plutella xylostella larval average mortality (%) (Plutella xylostella [4]; application rate 12.5 ppm): 100% | Plutella xylostella larval average mortality (%) (Plutella xylostella [4]; application rate 50 ppm): 100% | Plutella xylostella larval average mortality (%) (Plutella xylostella [4]; application rate 200 ppm): 100%

CCS(=O)(=O)N1CC(NC(=O)c2ccc(C3=NO[C@@](c4cc(Cl)cc(Cl)c4)(C(F)(F)F)C3)cc2C)C1 [Compound A11, 4-[(5S)-5-(3,5-dichlorophenyl)-5-(trifluoromethyl)-4H-isoxazol-3-yl]-N-(1-ethylsulfonylazetidin-3-yl)-2-methyl-benzamide]
mortality at 200 ppm (Spodoptera littoralis [5]): ≥ 80% | mortality at 200 ppm (Thrips tabaci [6]): ≥ 80% | percent control (mortality or growth inhibition) at 200 ppm (Diabrotica balteata): ≥ 80% | mortality at 12 ppm (Myzus persicae [7]): ≥ 80% | mortality at 200 ppm (Tetranychus urticae [8]): ≥ 80% | percent control (mortality or growth inhibition) at 200 ppm (Euschistus heros): ≥ 80% | percent control (mortality or growth inhibition) at 200 ppm (Plutella xylostella [9]): ≥ 80%

CS(=O)(=O)N1CC(NC(=O)c2ccc(C3=NOC(c4cc(Cl)c(F)c(Cl)c4)(C(F)(F)F)C3)c3c2CCC3)C1 (centres unmarked) [Compound B01, 7-[5-(3,5-dichloro-4-fluoro-phenyl)-5-(trifluoromethyl)-4H-isoxazol-3-yl]-N-(1-methylsulfonylazetidin-3-yl)indane-4-carboxamide]
mortality at 200 ppm (Spodoptera littoralis [5]): ≥ 80% | mortality at 200 ppm (Thrips tabaci [6]): ≥ 80% | mortality at 200 ppm (Myzus persicae [10]): ≥ 80% | percent control (mortality or growth inhibition) at 200 ppm (Diabrotica balteata): ≥ 80% | mortality at 200 ppm (Tetranychus urticae [8]): ≥ 80% | percent control (mortality or growth inhibition) at 200 ppm (Euschistus heros): ≥ 80% | percent control (mortality or growth inhibition) at 200 ppm (Plutella xylostella [9]): ≥ 80%
